Paper PMC5843908, “Detection of PRMT1 inhibitors with stopped flow fluorescence” (Signal Transduction and Targeted Therapy, 2018)
Like-named read-outs stand apart in the source and are kept apart here.

How the values were obtained:
PRMT1 [1] = biological target: T1, PRMT1 (Homo sapiens, UniProt Q99873); experiment: Stopped flow fluorescence assay of PRMT1 inhibition ([PRMT1] 0.2 µM, [SAM] 3.5 µM, [H4FL] 0.4 µM); type: biochemical;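 note: Stopped-flow traces of fluorescent H4FL peptide quenched on binding PRMT1 and restored on release, recorded 900 s, averaged over repeated drives and fit to a double-exponential model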
T1 sequence (Q99873 29-371): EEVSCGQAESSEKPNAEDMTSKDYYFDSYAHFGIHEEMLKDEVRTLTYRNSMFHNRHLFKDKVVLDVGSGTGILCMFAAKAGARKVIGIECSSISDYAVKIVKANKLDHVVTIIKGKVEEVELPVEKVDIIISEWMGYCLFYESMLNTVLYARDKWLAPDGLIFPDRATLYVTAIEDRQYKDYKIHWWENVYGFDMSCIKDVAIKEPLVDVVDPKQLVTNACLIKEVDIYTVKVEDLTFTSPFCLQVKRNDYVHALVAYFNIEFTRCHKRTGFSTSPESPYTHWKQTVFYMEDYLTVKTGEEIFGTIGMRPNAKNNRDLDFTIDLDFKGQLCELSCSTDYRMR
Text: To obtain the IC50 of a specific inhibitor, the relative activities of the enzyme in presence of different concentrations of the inhibitor are required (equation 1).[37] […] By adding different concentrations of the inhibitor to the reaction mixture, the relative activity of the enzyme can be obtained by normalizing K to the reaction rate without the inhibitor, and then calculate the IC50 value using equation 1. In our stopped flow fluorescence assay, the reaction rate of Phase I and Phase II can be obtained by approximating and deriving the double-exponential equation (equation 2). In Phase I, during a very short period of time (where t is small), the curve is nearly linear, and the exponential equation can be approximately described as F1 = a · (−k1) · t. Therefore, the derivation of F1 equals –k1∙a, which is the slope of Phase I. Similarly, the curve of Phase II at early stage can be approximately described as F2 = b · (−k2) · t. This derivation of F2 equals –k2∙b, which is the slope of Phase II. The slopes at various inhibitor concentrations, normalized to the slope in the absence of inhibitor, can be used to obtain the corresponding relative enzyme activity from which the potency value (IC50) of the inhibitor can be calculated with equation 1.
(§1) In a stopped flow fluorescence assay, the binding of H4FL to PRMT1 (or the PRMT1—cofactor complex) quenches the peptide fluorescence, while release of the peptide restores the fluorescence. […] The widths of the entrance and exit slits of the monochromator were set to 0.5 mm. An equal volume of samples from two syringes was driven into the observation cell for mixing measurements. The H4FL concentration in all experiments was 0.4 μM. […] The fluorescent signal was recorded for 900 seconds, with 10,000 data points in total. Data from four to six drives were collected and averaged for each curve.
After averaging the shot data, the association time courses were fitted to a double-exponential function (equation 2) using GraphPad Prism (CA, USA). […] F is the fluorescence intensity at time t, k1, and k2 are the rate constants for Phase I and Phase II, a is the amplitude of the fluorescence change for k1, and b is the amplitude of the fluorescence change for k2. Simulation curves based on the values of a, b, k1, and k2 at fixed c = 1 were produced using Matlab. The IC50 value of inhibitors is determined by equation 1 using GraphPad Prism (CA, USA).

PRMT1 [2] = conditions: read-out: Km of SAM on H4FL; cited from earlier work
PRMT1 [3] = biological target: T1, PRMT1
Text: We plotted the values of a · k1 or −b · k2 against the SAM concentration (Fig. 3c, d).
as §1
After averaging the shot data, the association time courses were fitted to a double-exponential function (equation 2) using GraphPad Prism (CA, USA). […] F is the fluorescence intensity at time t, k1, and k2 are the rate constants for Phase I and Phase II, a is the amplitude of the fluorescence change for k1, and b is the amplitude of the fluorescence change for k2. Simulation curves based on the values of a, b, k1, and k2 at fixed c = 1 were produced using Matlab.

PRMT1 [4] = system: PRMT1; parameters: method as in earlier work; conditions: binary binding to PRMT1; ref 2 (supplement; Feng et al. 2011); cited from earlier work

## Nc1ncnc2c1ncn2[C@@H]1O[C@H](C[C@@H](N)CC[C@H](N)C(=O)O)[C@@H](O)[C@H]1O [sinefungin]
PRMT1 [1]; [sinefungin] 0.0375 µM
  -b·k2 (slope of Phase II): 0.000574 ± 1.23e-06 s⁻¹
  a (amplitude, Phase I): 0.1645 ± 3.77E-04
  a·k1 (slope of Phase I): 0.0107 ± 4.96e-05 s⁻¹
  b (amplitude, Phase II): -0.1699 ± 1.17E-04
  k1 (rate constant, Phase I): 0.0653 ± 2.62E-04 s^-1
  k2 (rate constant, Phase II): 0.00338 ± 6.86e-06 s⁻¹
PRMT1 [1]; [sinefungin] 0.075 µM
  -b·k2 (slope of Phase II): 0.00042 ± 1.32e-06 s⁻¹
  a (amplitude, Phase I): 0.2064 ± 3.83E-04
  a·k1 (slope of Phase I): 0.0115 ± 4.27e-05 s⁻¹
  b (amplitude, Phase II): -0.2170 ± 1.94E-04
  k1 (rate constant, Phase I): 0.05564 ± 1.79E-04 s^-1
  k2 (rate constant, Phase II): 0.00194 ± 5.83e-06 s⁻¹
PRMT1 [1]; [sinefungin] 0.15 µM
  -b·k2 (slope of Phase II): 0.000351 ± 1.48e-06 s⁻¹
  a (amplitude, Phase I): 0.2215 ± 4.17E-04
  a·k1 (slope of Phase I): 0.0126 ± 4.69e-05 s⁻¹
  b (amplitude, Phase II): -0.2165 ± 3.17E-04
  k1 (rate constant, Phase I): 0.05703 ± 1.83E-04 s^-1
  k2 (rate constant, Phase II): 0.00162 ± 6.43e-06 s⁻¹
PRMT1 [1]; [sinefungin] 0.3 µM
  -b·k2 (slope of Phase II): 0.00021 ± 1.94e-06 s⁻¹
  a (amplitude, Phase I): 0.2200 ± 4.51E-04
  a·k1 (slope of Phase I): 0.0118 ± 4.79e-05 s⁻¹
  b (amplitude, Phase II): -0.1711 ± 6.89E-04
  k1 (rate constant, Phase I): 0.05374 ± 1.88E-04 s^-1
  k2 (rate constant, Phase II): 0.00123 ± 1.02e-05 s⁻¹
PRMT1 [1]; [sinefungin] 0.75 µM
  -b·k2 (slope of Phase II): 0.000123 ± 2.15e-06 s⁻¹
  a (amplitude, Phase I): 0.2668 ± 5.02E-04
  a·k1 (slope of Phase I): 0.0149 ± 5.48e-05 s⁻¹
  b (amplitude, Phase II): -0.1045 ± 8.19E-04
  k1 (rate constant, Phase I): 0.05576 ± 1.77E-04 s^-1
  k2 (rate constant, Phase II): 0.00118 ± 1.83e-05 s⁻¹
PRMT1 [1]; [sinefungin] 1.5 µM
  -b·k2 (slope of Phase II): 7.22e-05 ± 5.34e-06 s⁻¹
  a (amplitude, Phase I): 0.287 ± 5.51E-04
  a·k1 (slope of Phase I): 0.0164 ± 6.01e-05 s⁻¹
  b (amplitude, Phase II): -0.1776 ± 8.27E-03
  k1 (rate constant, Phase I): 0.05722 ± 1.79E-04 s^-1
  k2 (rate constant, Phase II): 0.000406 ± 2.33e-05 s⁻¹
PRMT1 [1]; [sinefungin] 3 µM
  -b·k2 (slope of Phase II): 4.12e-05 ± 0.000152 s⁻¹
  a (amplitude, Phase I): 0.2925 ± 5.44E-04
  a·k1 (slope of Phase I): 0.0166 ± 5.83e-05 s⁻¹
  b (amplitude, Phase II): -4.517
  k1 (rate constant, Phase I): 0.05659 ± 1.69E-04 s^-1
  k2 (rate constant, Phase II): 9.13e-06 ± 3.36e-05 s⁻¹
PRMT1 [1]; [sinefungin] 7.5 µM
  -b·k2 (slope of Phase II): 1.42e-05 ± 0.000372 s⁻¹
  a (amplitude, Phase I): 0.2481 ± 5.15E-04
  a·k1 (slope of Phase I): 0.0148 ± 5.77e-05 s⁻¹
  b (amplitude, Phase II): -4.223
  k1 (rate constant, Phase I): 0.05968 ± 1.97E-04 s^-1
  k2 (rate constant, Phase II): 3.37e-06 ± 8.82e-05 s⁻¹
PRMT1 [1]; [sinefungin] 15 µM
  -b·k2 (slope of Phase II): 2.66e-06 ± 0.000274 s⁻¹
  a (amplitude, Phase I): 0.2592 ± 5.43E-04
  a·k1 (slope of Phase I): 0.0145 ± 5.77e-05 s⁻¹
  b (amplitude, Phase II): -0.5239
  k1 (rate constant, Phase I): 0.05599 ± 1.89E-04 s^-1
  k2 (rate constant, Phase II): 5.08e-06 ± 0.000523 s⁻¹

## C[S+](CC[C@H](N)C(=O)[O-])C[C@H]1O[C@@H](n2cnc3c(N)ncnc32)[C@H](O)[C@@H]1O (stereo partly drawn) [SAM, S-adenosylmethionine]
PRMT1 [2]
  Km: 3.1 ± 0.46 µM
PRMT1 [3]; [SAM] 1.5 µM
  -b·k2 (slope of Phase II): 0.0002 ± 9.72e-07 s⁻¹
  a (amplitude, Phase I): 0.0482 ± 2.31E-04
  a·k1 (slope of Phase I): 0.00212 ± 2.2e-05 s⁻¹
  b (amplitude, Phase II): -0.07363 ± 8.97E-05
  k1 (rate constant, Phase I): 0.04402 ± 4.06E-04 s^-1
  k2 (rate constant, Phase II): 0.002713 ± 1.28E-05 s^-1
PRMT1 [3]; [SAM] 3.5 µM
  -b·k2 (slope of Phase II): 0.000878 ± 2.58e-06 s⁻¹
  a (amplitude, Phase I): 0.0846 ± 3.83E-04
  a·k1 (slope of Phase I): 0.00678 ± 6.58e-05 s⁻¹
  b (amplitude, Phase II): -0.1161 ± 2.14E-04
  k1 (rate constant, Phase I): 0.08016 ± 6.88E-04 s^-1
  k2 (rate constant, Phase II): 0.007565 ± 1.73E-05 s^-1
PRMT1 [3]; [SAM] 7.5 µM
  -b·k2 (slope of Phase II): 0.00141 ± 4.46e-06 s⁻¹
  a (amplitude, Phase I): 0.1529 ± 1.79E-03
  a·k1 (slope of Phase I): 0.0272 ± 0.000547 s⁻¹
  b (amplitude, Phase II): -0.2054 ± 3.40E-04
  k1 (rate constant, Phase I): 0.1778 ± 2.91E-03 s^-1
  k2 (rate constant, Phase II): 0.006848 ± 1.85E-05 s^-1
PRMT1 [3]; [SAM] 15 µM
  -b·k2 (slope of Phase II): 0.00313 ± 1.01e-05 s⁻¹
  a (amplitude, Phase I): 0.1992 ± 2.65E-03
  a·k1 (slope of Phase I): 0.0493 ± 0.00109 s⁻¹
  b (amplitude, Phase II): -0.2664 ± 5.21E-04
  k1 (rate constant, Phase I): 0.2476 ± 4.40E-03 s^-1
  k2 (rate constant, Phase II): 0.01175 ± 3.03E-05 s^-1

## acetyl -SGRme2aGKGGKGK(FL)GKGGAKRHRK [H4FLme2]
PRMT1 [4]
  koff: 319 s⁻¹
  kon: 2.6e+07 M⁻¹ s⁻¹
